Reference: patent publication US8232308B2, “Methods for treating a disease in which Rho kinase is involved” (UBE Industries, Ltd., priority 2003, dated 2012)
Where a name gives a salt, the structure may show the parent alone.

Tests used:
activated ROCK II = target: T1, activated ROCK II (Rattus norvegicus, UniProt Q62868); assay: Test for Evaluation of Inhibiting Activity to Rho Kinase; type: biochemical; conditions: S6 Kinase Substrate Peptide, [γ-32P]ATP, 30° C. for 15 minutes, Ki=IC50/(1+S/Km)
T1 construct: purchased Upstate Biotechnology 14-338
Protocol: In order to find the utility of the present invention compound, a Rho kinase inhibiting activity of the present invention compound was evaluated. The details thereof will be illustrated under the item of “Pharmacological Test (Test for Evaluation of Rho Kinase Inhibiting Activity)” in the Examples which will be mentioned later. The evaluation of the Rho kinase inhibiting activity of the present invention compound was carried out in accordance with the methods mentioned in J. Biol. Chem., 274, 32418 (1999) by Kaibuchi, et al. and mentioned in the instruction manual for use attached to the commercially available activated ROCK II [Upstate Biotechnology, Catalog No. 14-338 (5 units/50 μl)].
A. Test for Evaluation of Inhibiting Activity to Rho Kinase
In order to test the usefulness of the compounds of the present invention as a Rho kinase inhibitor, inhibiting activities of the compounds of the present invention to Rho kinase were evaluated and investigated in accordance with the methods of Kaibuchi, et al. mentioned in J. Biol. Chem., 274, 32418, 1999 and also with the methods mentioned in the instruction manual for use attached to commercially available activated ROCK II [Upstate Biotechnology, Catalog No. 14-338, (5 unite/50 μl)]. With regard to the test compounds, the compounds 5-1 to 5-73 (except the compounds 5-2, 5-9, 5-18, 5-37 and 5-38) were used.
A buffer was prepared so as to make tris(hydroxymethyl)aminomethane (Tris) (pH 7.5), 50 mM, ethyleneglycol bis(β-aminoethyl ether)-N,N,N′,N′-tetraacetic acid (EGTA), 2 mM, ethylenediaminetetraacetic acid (EDTA), 1 mM, magnesium chloride (MgCl2) 5 mM, β-glycerol phosphate, 5 mM, and dithiothreitol (DTT), 2 mM, by mixing them.
A mixed liquid of a 10 mM ATP solution with a commercially available [γ-^32P]ATP solution [NEN, Code No. NEG-002A] was diluted with the buffer to prepare a 300 μM ATP [γ-^32P]ATP solution.
A Commercially Available Activated ROCK II [Upstate Biotechnology, Catalog No. 14-338, (5 Units/50 μl)] was diluted to a concentration of 1/100 with the buffer to prepare an activated ROCK II solution.
A S6 Kinase Substrate Peptide [Upstate Biotechnology, Catalog No. 12-124,] (2 mg) was dissolved in distilled water to prepare a 1 mM substrate solution.
A test compound was dissolved in 10% aqueous dimethyl sulfoxide solution.
1) The test compound solution is placed in a microtube.
2) The 300 μM ATP [γ-^32P]ATP solution is added to the microtube followed by cooling to 4° C.
3) After that, a permanently activated ROCK II solution, 1 mM substrate solution and buffer are added to each microtube in that order, and the whole is mixed and cooled again at 4° C.
4) The microtube is placed in an incubator (30° C.) and the mixture is subjected to reaction for 15 minutes.
5) After cooling to 4° C., a 250 mM phosphoric acid solution (5 μl) is added to each microtube to stop the reaction.
6) The reaction solution (30 μl) is taken out from each microtube and spotted on a filter paper (Whatman P81) so that the reaction product (phosphorylated substrate) is adsorbed to the filter paper.
7) The filter paper is transferred to a beaker in which a 75 mM phosphoric acid solution is placed and shaken for 5 minutes so that unreacted [γ-^32P]AfP is washed out. The washing operation as such is carried out four times.
8) After that, the filter paper is dipped in ethanol to dehydrate and energy amount (radioactivity) of the reaction product adsorbed to the filter paper is measured with a liquid scintillation counter.
The IC50 value was calculated by an XL-fit (IDBS).
The Ki value is calculated by the following formula. S is an ATP concentration contained in the reaction solution while Km is a Michaelis-Menten constant. Ki=IC50/(1+S/Km)

T1 sequence (Q62868 11-550 limits assumed): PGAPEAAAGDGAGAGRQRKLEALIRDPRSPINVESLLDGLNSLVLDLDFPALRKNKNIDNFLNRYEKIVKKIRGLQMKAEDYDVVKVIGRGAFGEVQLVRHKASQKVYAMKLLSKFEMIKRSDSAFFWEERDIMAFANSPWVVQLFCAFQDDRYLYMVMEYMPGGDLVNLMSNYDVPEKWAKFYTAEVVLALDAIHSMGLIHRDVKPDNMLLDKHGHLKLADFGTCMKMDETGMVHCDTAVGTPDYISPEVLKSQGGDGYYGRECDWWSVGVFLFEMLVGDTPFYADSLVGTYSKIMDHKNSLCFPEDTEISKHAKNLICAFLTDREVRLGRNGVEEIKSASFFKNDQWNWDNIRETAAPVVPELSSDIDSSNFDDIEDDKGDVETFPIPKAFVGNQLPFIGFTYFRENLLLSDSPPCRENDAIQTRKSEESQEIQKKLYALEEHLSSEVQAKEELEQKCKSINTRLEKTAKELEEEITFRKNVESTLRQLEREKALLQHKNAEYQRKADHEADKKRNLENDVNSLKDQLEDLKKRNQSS

SMILES	melting point	Ki (activated ROCK II) [nM]
CC(C)(N)c1ccc(-c2ccc3[nH]ncc3c2-c2ccccn2)cc1 (as salt: hydrochloride) [Compound 5-63, 5-[4-(1-Amino-1-methylethyl)phenyl]-4-(pyridin-2-yl)-1H-indazole trihydrochloride]	210 to 214 °C (dec.)	
CCc1c(-c2ccc(C(C)(C)N)cn2)ccc2[nH]ncc12 (as salt: hydrochloride) [Compound 5-28, 5-[5-(1-Amino-1-methylethyl)pyridin-2-yl]-4-ethyl-1H-indazole trihydrochloride]	247 to 255 °C (dec.)	
CC(C)(C)OC(=O)NC(C)(C)c1ccc(-c2ccc3nn(C4CCCCO4)cc3c2-c2cc[nH]n2)cc1 (stereo not drawn) [Compound 30, 5-[4-(1-tert-butoxycarbonylamino-1-methylethyl)phenyl]-4-(pyrazol-3-yl)-2-(tetrahydropyran-2-yl)-2H-indazole]	99 to 105 °C	
CC(C)(N)c1cnc(-c2ccc3[nH]ncc3c2)c(Cl)c1 (as salt: hydrochloride) [Compound 5-27, 5-[5-(1-Amino-1-methylethyl)-3-chloropyridin-2-yl]-1H-indazole trihydrochloride]	179 to 182 °C	
Nc1c(-c2ccc(C3(N)CCCC3)cc2)ccc2[nH]ncc12 (as salt: hydrochloride) [Compound 5-21, 4-Amino-5-[4-(1-aminocyclopentyl)phenyl]-1H-indazole dihydrochloride]	234 to 237 °C	
CCOc1c(-c2ccc(C(C)(C)N)cn2)ccc2[nH]ncc12 (as salt: hydrochloride) [Compound 5-47, 5-[5-(1-Amino-1-methylethyl)pyridin-2-yl]-4-ethoxy-1H-indazole trihydrochloride]	198 to 201 °C	
CC(C)(N)c1ccc(-c2ccc3[nH]nc(C(=O)O)c3c2)cc1 (as salt: hydrochloride) [Compound 5-9, 5-[4-(1-Amino-1-methylethyl)phenyl]-3-carboxy-1H-indazole monohydrochloride]	274 to 280 °C (dec.)	
CCOc1c(-c2ccc(C(C)(C)N)cc2)ccc2[nH]ncc12 (as salt: hydrochloride) [Compound 5-49, 5-[4-(1-Amino-1-methylethyl)phenyl]-4-ethoxy-1H-indazole dihydrochloride]	248 to 256 °C (dec.)	
CC(C)(N)c1ccc(-c2ccc3[nH]ncc3c2-c2ccncc2)cc1 (as salt: hydrochloride) [Compound 5-61, 5-[4-(1-Amino-1-methylethyl)phenyl]-4-(pyridin-4-yl)-1H-indazole trihydrochloride]	266 to 269 °C (dec.)	
CC(C)(N)c1ccc(-c2ccc3[nH]nc(C#N)c3c2)cc1 (as salt: hydrochloride) [Compound 5-13, 5-[4-(1-Amino-1-methylethyl)phenyl]-3-cyano-1H-indazole dihydrochloride]	224 to 227 °C (dec.)	
CN(C)c1c(-c2ccc(C3(N)CCCC3)cc2)ccc2[nH]ncc12 (as salt: hydrochloride) [Compound 5-24, 5-[4-(1-Aminocyclopentyl)phenyl]-4-dimethylamino-1H-indazole trihydrochloride]	175 to 178 °C (dec.)	
CC(C)(N)c1ccc(-c2ccc3[nH]ncc3c2-c2cn[nH]c2)cc1 (as salt: hydrochloride) [Compound 5-64, 5-[4-(1-Amino-1-methylethyl)phenyl]-4-(pyrazol-4-yl)-1H-indazole trihydrochloride]	259 to 267 °C (dec.)	
CC(C)(N)c1ccc(-c2ccc3[nH]ncc3c2)nc1 (as salt: hydrochloride) [Compound 5-3, 5-[5-(1-Amino-1-methylethyl)pyridin-2-yl]-1H-indazole trihydrochloride]	271 to 273 °C (dec.)	
CC(C)(N)c1ccc(-c2ccc3[nH]ncc3c2O)cc1 (as salt: hydrochloride) [Compound 5-48, 5-[4-(1-Amino-1-methylethyl)phenyl]-4-hydroxy-1H-indazole dihydrochloride]	194 to 198 °C (dec.)	
COc1c(-c2ccc(C3(N)CCCC3)cn2)ccc2[nH]ncc12 (as salt: hydrochloride) [Compound 5-46, 5-[5-(1-Aminocyclopentyl)pyridin-2-yl]-4-methoxy-1H-indazole trihydrochloride]	195 to 203 °C (dec.)	
COC(=O)c1n[nH]c2ccc(-c3ccc(C(C)(C)N)cc3)cc12 (as salt: hydrochloride) [Compound 5-8, 5-[4-(1-Amino-1-methylethyl)phenyl]-3-methoxy-carbonyl-1H-indazole dihydrochloride]	264 to 267 °C (dec.)	
CC(C)(N)c1ccc(-c2ccc3[nH]ncc3c2-c2ccno2)cc1 (as salt: hydrochloride) [Compound 5-68, 5-[4-(1-Amino-1-methylethyl)phenyl]-4-(isoxazol-5-yl)-1H-indazole dihydrochloride]	256 to 258 °C (dec.)	
CC(C)(N)c1ccc(-c2ccc3cn[nH]c3c2)cc1 (as salt: hydrochloride) [Compound 5-37, 6-[4-(1-Amino-1-methylethyl)phenyl]-1H-indazole dihydrochloride]	265 to 269 °C	
CCC(N)(CC)c1ccc(-c2ccc3[nH]ncc3c2OC2CC2)nc1 (as salt: hydrochloride) [Compound 5-71, 5-[5-(1-Amino-1-ethylpropyl)pyridin-2-yl]-4-cyclo-propyloxy-1H-indazole trihydrochloride]	207 to 209 °C (dec.)	
CN(C)c1c(-c2ccc(CN)cc2)ccc2[nH]ncc12 (as salt: hydrochloride) [Compound 5-23, 5-[4-(Aminomethyl)phenyl]-4-dimethylamino-1H-indazole trihydrochloride]	188 to 192 °C (dec.)	
CC(C)(N)c1ccc(-c2ccc3[nH]ncc3c2-c2cnco2)cc1 (as salt: hydrochloride) [Compound 5-66, 5-[4-(1-Amino-1-methylethyl)phenyl]-4-(oxazol-5-yl)-1H-indazole dihydrochloride]	212 to 214 °C (dec.)	
CC(C)(N)c1ccc(-c2ccc3[nH]ncc3c2N2CCCCC2)cc1 (as salt: hydrochloride) [Compound 5-41, 5-[4-(1-Amino-1-methylethyl)phenyl]-4-(piperidin-1-yl)-1H-indazole trihydrochloride]	205 to 208 °C (dec.)	
CC(C)(N)c1ccc(-c2ccc3[nH]ncc3c2C2CC2)nc1 (as salt: hydrochloride) [Compound 5-29, 5-[5-(1-Amino-1-methylethyl)pyridin-2-yl]-4-cyclo-propyl-1H-indazole trihydrochloride]	209 to 213 °C (dec.)	
CCN(CC)c1c(-c2ccc(C(C)(C)N)cc2)ccc2[nH]ncc12 (as salt: hydrochloride) [Compound 5-31, 5-[4-(1-Amino-1-methylethyl)phenyl]-4-diethylamino-1H-indazole trihydrochloride]	182 to 184 °C (dec.)	
CCC(N)(CC)c1ccc(-c2ccc3[nH]ncc3c2N)cc1 [Compound 5-22, 4-Araino-5-[4-(1-amino-1-ethylpropyl)phenyl]-1H-indazole trihydrochloride]		38
CC(C)(N)c1ccc(-c2ccc3[nH]ncc3c2OC(F)F)cc1 [Compound 5-53, 5-[4-(1-Amino-1-methylethyl)phenyl]-4-difluoro-methoxy-1H-indazole dihydrochloride]		3.6
CN(C)c1c(-c2ccc(CN)cc2)ccc2[nH]ncc12 [Compound 5-23, 5-[4-(Aminomethyl)phenyl]-4-dimethylamino-1H-indazole trihydrochloride]		29
